Measurements reported in PubChem BioAssay (NCI).
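Where inhibition never reached the appropriate level, the endpoint shown equals the highest concentration tested. Otherwise, values were interpolated linearly from a five-concentration, 48-hour dose response in 96-well plates. At the GI50, growth is halved. TGI denotes the concentration required for complete inhibition of growth.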

Assays:
Assay in all cases: NCI tumour cell line growth inhibition, 48 h
HCT-15 colon = system: HCT-15 colon
K-562 leukemia = system: K-562 leukemia
HOP-18 NSCLC = system: HOP-18 NSCLC
KM12 colon = system: KM12 colon
SF-539 CNS = system: SF-539 CNS
M14 melanoma = system: M14 melanoma
786-0 renal = system: 786-0 renal
LXFL 529 NSCLC = system: LXFL 529 NSCLC
SNB-75 CNS = system: SNB-75 CNS

## Nn1c(N=Nc2c(O)[nH]c3c(Cl)cc(Cl)cc23)n[nH]c1=S
HCT-15 colon
  TGI: > 100 µM
K-562 leukemia
  TGI: > 100 µM
HOP-18 NSCLC
  TGI: > 100 µM
KM12 colon
  TGI: > 100 µM
SF-539 CNS
  TGI: > 100 µM
M14 melanoma
  TGI: > 100 µM
786-0 renal
  TGI: > 100 µM
LXFL 529 NSCLC
  TGI: > 100 µM

## COC1=C2CC(C)CC(OC)C(O)C(C)/C=C(\C)C(OC(N)=O)C(OC)/C=C\C=C(/C)C(=O)NC(=C(/C=N/N3CCCCC3)C1=O)C2=O (configuration not stated)
HCT-15 colon
  TGI: 28.6 µM
K-562 leukemia
  TGI: 21.6 µM
HOP-18 NSCLC
  TGI: 27.2 µM
KM12 colon
  TGI: 25.1 µM
SF-539 CNS
  TGI: 20.8 µM
M14 melanoma
  TGI: 37.4 µM
SNB-75 CNS
  TGI: 41 µM
786-0 renal
  TGI: 22.8 µM
LXFL 529 NSCLC
  TGI: 24.1 µM

## CC1(C)OC(=O)C=C([O-])O1.CC1(C)OC(=O)C=C([O-])O1.CC[O-].CC[O-].[Ti+4]
HCT-15 colon
  GI50: > 100 µM
  TGI: > 100 µM
K-562 leukemia
  GI50: > 100 µM
  TGI: > 100 µM
HOP-18 NSCLC
  GI50: > 100 µM
  TGI: > 100 µM
KM12 colon
  GI50: > 100 µM
  TGI: > 100 µM
SF-539 CNS
  GI50: > 100 µM
  TGI: > 100 µM
M14 melanoma
  GI50: > 100 µM
  TGI: > 100 µM
SNB-75 CNS
  GI50: > 100 µM
  TGI: > 100 µM
786-0 renal
  GI50: > 100 µM
  TGI: > 100 µM
LXFL 529 NSCLC
  GI50: > 100 µM
  TGI: > 100 µM

## COc1ccc2nc(NC(=O)C(=O)C(C#N)c3ccc(Cl)c(Cl)c3)sc2c1 (configuration not stated)
HCT-15 colon
  TGI: > 100 µM
K-562 leukemia
  TGI: > 100 µM
KM12 colon
  TGI: > 100 µM
SF-539 CNS
  TGI: > 100 µM
M14 melanoma
  TGI: > 100 µM
SNB-75 CNS
  TGI: > 100 µM
786-0 renal
  TGI: > 100 µM
LXFL 529 NSCLC
  TGI: > 100 µM

## CN(C)C(=S)/N=c1\ss/c(=N\S(=O)(=O)c2ccccc2)n1N(C)C
HCT-15 colon
  TGI: > 100 µM
K-562 leukemia
  TGI: > 100 µM
HOP-18 NSCLC
  TGI: > 100 µM
KM12 colon
  TGI: > 100 µM
SF-539 CNS
  TGI: > 100 µM
M14 melanoma
  TGI: > 100 µM
SNB-75 CNS
  TGI: > 100 µM
786-0 renal
  TGI: > 100 µM
LXFL 529 NSCLC
  TGI: > 100 µM

## O=C(O)CCSC(=O)Nc1ccc(N=Nc2ccccc2)cc1
HCT-15 colon
  TGI: > 100 µM
K-562 leukemia
  TGI: > 100 µM
HOP-18 NSCLC
  TGI: > 100 µM
KM12 colon
  TGI: > 100 µM
SF-539 CNS
  TGI: > 100 µM
M14 melanoma
  TGI: > 100 µM
SNB-75 CNS
  TGI: > 100 µM
786-0 renal
  TGI: > 100 µM
LXFL 529 NSCLC
  TGI: > 100 µM

## COc1ccc2c(c1OC)C(=O)c1cnccc1C2=O
HCT-15 colon
  TGI: > 100 µM
K-562 leukemia
  TGI: > 100 µM
HOP-18 NSCLC
  TGI: > 100 µM
KM12 colon
  TGI: > 100 µM
SF-539 CNS
  TGI: > 100 µM
M14 melanoma
  TGI: > 100 µM
SNB-75 CNS
  TGI: > 100 µM
786-0 renal
  TGI: > 100 µM
LXFL 529 NSCLC
  TGI: > 100 µM

## O=C(NS(=O)(=O)c1ccccc1)C(Cc1ccccc1)C(Cc1ccccc1)C(=O)NS(=O)(=O)c1ccccc1 (configuration not stated)
K-562 leukemia
  TGI: > 100 µM
HOP-18 NSCLC
  TGI: > 100 µM
KM12 colon
  TGI: > 100 µM
SF-539 CNS
  TGI: > 100 µM
M14 melanoma
  TGI: > 100 µM
SNB-75 CNS
  TGI: > 100 µM
786-0 renal
  TGI: > 100 µM
LXFL 529 NSCLC
  TGI: > 100 µM

## CN1CC(=O)N(C)c2nc[nH]c2C1=O
HCT-15 colon
  TGI: > 100 µM
K-562 leukemia
  TGI: > 100 µM
HOP-18 NSCLC
  TGI: > 100 µM
KM12 colon
  TGI: > 100 µM
SF-539 CNS
  TGI: > 100 µM
M14 melanoma
  TGI: > 100 µM
SNB-75 CNS
  TGI: > 100 µM
786-0 renal
  TGI: > 100 µM
LXFL 529 NSCLC
  TGI: > 100 µM

## O=C(/C=C1/Nc2ccc([N+](=O)[O-])cc2NC1O)c1cccc([N+](=O)[O-])c1 (configuration not stated)
HCT-15 colon
  TGI: > 100 µM
K-562 leukemia
  TGI: > 100 µM
SF-539 CNS
  TGI: 87.2 µM
M14 melanoma
  TGI: > 100 µM
SNB-75 CNS
  TGI: > 100 µM
786-0 renal
  TGI: 47.8 µM
LXFL 529 NSCLC
  TGI: > 100 µM

## CCC(Oc1ccc(OC)c2ccccc(=O)c12)C(=O)O (configuration not stated)
HCT-15 colon
  TGI: > 100 µM
K-562 leukemia
  TGI: > 100 µM
KM12 colon
  TGI: > 100 µM
SF-539 CNS
  TGI: > 100 µM
M14 melanoma
  TGI: > 100 µM
SNB-75 CNS
  TGI: > 100 µM
786-0 renal
  TGI: > 100 µM
LXFL 529 NSCLC
  TGI: > 100 µM
